Earlier results as cited in patent US20150037408A1, “Delayed Release Pharmaceutical Compositions of Salsalate” (priority 2012, published 2015).

What was measured:
[1] = 3 grams daily (two 750-mg tablets twice daily) for 15 days
[2] = patients with osteoarthrosis of the hip or knee

SMILES: O=C(Oc1ccccc1C(=O)O)c1ccccc1O [Salsalate, 2-hydroxybenzoic acid 2-carboxyphenyl ester]
- efficacy and safety in arthritic disease [1]: effective and safe in ameliorating the symptoms of arthritic disease
- clinical improvement versus aspirin [2]: comparable clinical improvement to that with aspirin
- side-effects and faecal occult blood loss versus aspirin [2]: significantly superior to aspirin
